For orientation: IC50 means the point on the concentration scale where inhibition reaches its midpoint.

For experiment [1], the target named is PIK3CD (Human) (UniProt O00329). Put plainly: Assessment of PIK3CD Kinase Activity.
The target of experiment [2] is PIK3CG (human) (UniProt P48736). The experiment in a line: Assessment of PIK3CG Kinase Activity.
Experiment [3] addresses PIK3CA (human) (UniProt P42336). Put plainly: Assessment of PIK3CA Kinase Activity.

Where only a bound is given, the exact number is not on record here.

PIK3CG (human), sequence (P48736 whole entry, looked up): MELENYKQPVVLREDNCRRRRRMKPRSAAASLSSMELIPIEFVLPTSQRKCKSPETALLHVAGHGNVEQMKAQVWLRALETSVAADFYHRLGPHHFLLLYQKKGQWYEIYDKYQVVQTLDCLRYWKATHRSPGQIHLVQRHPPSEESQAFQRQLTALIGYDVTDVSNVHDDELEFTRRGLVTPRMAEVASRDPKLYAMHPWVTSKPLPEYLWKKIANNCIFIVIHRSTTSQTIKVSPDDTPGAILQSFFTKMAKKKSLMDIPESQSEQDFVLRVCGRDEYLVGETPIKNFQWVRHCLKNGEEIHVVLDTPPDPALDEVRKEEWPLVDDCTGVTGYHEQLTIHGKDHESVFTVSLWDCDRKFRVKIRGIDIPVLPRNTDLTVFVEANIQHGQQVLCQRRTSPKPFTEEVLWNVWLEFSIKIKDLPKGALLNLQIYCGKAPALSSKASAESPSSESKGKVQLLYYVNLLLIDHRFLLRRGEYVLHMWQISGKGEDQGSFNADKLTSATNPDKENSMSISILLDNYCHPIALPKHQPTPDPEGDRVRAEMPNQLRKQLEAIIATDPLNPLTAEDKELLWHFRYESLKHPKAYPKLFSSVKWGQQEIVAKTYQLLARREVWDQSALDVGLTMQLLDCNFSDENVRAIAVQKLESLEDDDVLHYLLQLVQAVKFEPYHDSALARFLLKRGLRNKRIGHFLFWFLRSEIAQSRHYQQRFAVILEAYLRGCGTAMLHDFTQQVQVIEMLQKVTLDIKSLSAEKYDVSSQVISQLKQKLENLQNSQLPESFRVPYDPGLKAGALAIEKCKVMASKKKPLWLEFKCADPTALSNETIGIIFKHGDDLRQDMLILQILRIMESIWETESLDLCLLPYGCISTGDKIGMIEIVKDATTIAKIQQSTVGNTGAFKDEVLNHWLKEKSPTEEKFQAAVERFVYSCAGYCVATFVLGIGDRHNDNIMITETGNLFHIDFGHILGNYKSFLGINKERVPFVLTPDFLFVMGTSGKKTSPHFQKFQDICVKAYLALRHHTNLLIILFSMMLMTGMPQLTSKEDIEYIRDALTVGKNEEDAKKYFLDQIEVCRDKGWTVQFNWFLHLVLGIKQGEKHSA
PIK3CD (Human), sequence (O00329 whole entry, looked up): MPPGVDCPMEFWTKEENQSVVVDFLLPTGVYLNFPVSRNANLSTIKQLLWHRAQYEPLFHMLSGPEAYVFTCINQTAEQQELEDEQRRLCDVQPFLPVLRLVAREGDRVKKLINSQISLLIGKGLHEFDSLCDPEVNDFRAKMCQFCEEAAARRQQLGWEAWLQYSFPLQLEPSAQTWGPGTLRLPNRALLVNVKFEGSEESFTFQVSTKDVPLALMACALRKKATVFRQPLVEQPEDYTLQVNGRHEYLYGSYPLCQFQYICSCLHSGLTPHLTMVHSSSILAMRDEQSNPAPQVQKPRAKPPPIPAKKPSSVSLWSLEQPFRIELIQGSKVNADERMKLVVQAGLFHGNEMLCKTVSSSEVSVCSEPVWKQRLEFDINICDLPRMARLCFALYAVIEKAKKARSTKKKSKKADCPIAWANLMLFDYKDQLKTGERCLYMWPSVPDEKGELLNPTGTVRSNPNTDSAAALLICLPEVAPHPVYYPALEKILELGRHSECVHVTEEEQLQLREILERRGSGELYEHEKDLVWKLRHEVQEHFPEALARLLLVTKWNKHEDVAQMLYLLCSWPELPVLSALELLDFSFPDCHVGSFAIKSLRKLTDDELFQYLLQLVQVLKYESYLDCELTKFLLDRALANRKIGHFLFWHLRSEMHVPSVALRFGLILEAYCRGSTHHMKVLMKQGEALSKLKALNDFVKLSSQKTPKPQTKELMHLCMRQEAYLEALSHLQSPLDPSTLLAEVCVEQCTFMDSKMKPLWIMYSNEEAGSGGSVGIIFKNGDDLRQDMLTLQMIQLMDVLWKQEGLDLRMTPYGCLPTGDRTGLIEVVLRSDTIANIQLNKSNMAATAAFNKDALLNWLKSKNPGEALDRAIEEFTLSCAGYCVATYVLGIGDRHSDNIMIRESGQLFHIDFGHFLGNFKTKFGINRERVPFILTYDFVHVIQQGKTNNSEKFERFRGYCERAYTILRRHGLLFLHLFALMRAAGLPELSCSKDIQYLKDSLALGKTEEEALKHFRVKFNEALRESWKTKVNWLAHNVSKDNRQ
PIK3CA (human), sequence (P42336 whole entry, looked up): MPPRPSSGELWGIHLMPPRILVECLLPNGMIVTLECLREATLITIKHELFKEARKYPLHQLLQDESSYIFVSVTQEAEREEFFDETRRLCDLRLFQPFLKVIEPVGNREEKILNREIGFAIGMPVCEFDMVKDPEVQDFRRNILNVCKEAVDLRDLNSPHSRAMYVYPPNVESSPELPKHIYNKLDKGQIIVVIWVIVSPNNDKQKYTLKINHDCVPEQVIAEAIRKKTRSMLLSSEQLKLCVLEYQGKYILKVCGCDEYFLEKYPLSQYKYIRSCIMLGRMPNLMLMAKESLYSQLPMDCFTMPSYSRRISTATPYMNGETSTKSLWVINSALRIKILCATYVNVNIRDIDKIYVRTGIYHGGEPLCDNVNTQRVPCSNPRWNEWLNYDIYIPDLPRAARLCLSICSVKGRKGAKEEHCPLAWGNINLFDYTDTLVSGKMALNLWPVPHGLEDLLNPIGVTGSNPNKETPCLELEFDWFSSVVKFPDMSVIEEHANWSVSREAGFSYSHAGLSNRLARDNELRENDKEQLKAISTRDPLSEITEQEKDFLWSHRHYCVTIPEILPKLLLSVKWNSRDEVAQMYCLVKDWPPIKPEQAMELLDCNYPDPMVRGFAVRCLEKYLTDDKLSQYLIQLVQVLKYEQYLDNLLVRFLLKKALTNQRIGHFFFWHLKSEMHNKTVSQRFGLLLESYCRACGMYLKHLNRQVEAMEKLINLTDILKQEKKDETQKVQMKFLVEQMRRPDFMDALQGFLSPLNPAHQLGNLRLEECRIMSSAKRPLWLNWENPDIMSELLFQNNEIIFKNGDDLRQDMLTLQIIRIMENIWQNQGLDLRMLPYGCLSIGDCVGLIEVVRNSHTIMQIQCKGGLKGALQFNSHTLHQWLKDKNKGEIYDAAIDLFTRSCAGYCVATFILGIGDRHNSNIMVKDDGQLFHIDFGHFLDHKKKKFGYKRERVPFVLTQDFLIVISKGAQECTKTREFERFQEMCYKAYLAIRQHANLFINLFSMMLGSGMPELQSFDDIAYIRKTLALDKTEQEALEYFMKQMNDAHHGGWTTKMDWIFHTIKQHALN

`C[C@H](Nc1nc(N)ncc1C#N)c1cc2cccc(Cl)c2c(=O)n1Cc1ccccc1`: the IC50 in experiment [1] is under 100 nM; in experiment [2], 100 to 1000 nM; in experiment [3], over 10000 nM.
Turning to `C[C@H](Nc1nc(N)ncc1C#N)c1cc2cccc(-c3ccc(N(C)C)cc3)c2c(=O)n1-c1ccccc1`, the IC50 in experiment [1] and in experiment [2] was under 100 nM each time.
Take `COc1cccc(-c2cccc3cc([C@H](C)Nc4nc(N)ncc4C#N)n(-c4ccccc4)c(=O)c23)n1`: the figures for the IC50 in experiment [1], in experiment [2] and in experiment [3] were under 100 nM, under 100 nM and over 10000 nM, respectively.
Take `C[C@H](Nc1nc(N)ncc1-c1cccs1)c1cc2cccc(Cl)c2c(=O)n1-c1ccccc1`: the IC50 is under 100 nM in experiment [1], under 100 nM in experiment [2] and over 10000 nM in experiment [3].
For `COc1ccc(-c2cccc3cc([C@H](C)Nc4nc(N)ncc4C#N)n(-c4ccccc4)c(=O)c23)cn1`, the IC50 in experiment [1] and in experiment [2] was under 100 nM in each case.
On to `CCn1cc(-c2cccc3cc([C@H](C)Nc4nc(N)ncc4C#N)n(-c4ccccc4)c(=O)c23)ccc1=O`, for which the IC50 in experiment [1] and in experiment [2] was under 100 nM in each case.
Consider `COc1cc(-c2cccc3cc([C@H](C)Nc4nc(N)ncc4C#N)n(-c4ccccc4)c(=O)c23)cnc1C`, for which the figures for the 50% inhibitory concentration (IC50) in experiment [1], in experiment [2] and in experiment [3] were under 100 nM, under 100 nM and 100 to 1000 nM, respectively.
`COc1ncc(-c2cccc3cc([C@H](C)Nc4nc(N)ncc4C#N)n(-c4ccccc4)c(=O)c23)s1`: the IC50 in experiment [1] and in experiment [2] was under 100 nM in each case.
In the case of `Cc1ncc(-c2cccc3cc([C@H](C)Nc4nc(N)ncc4C#N)n(-c4ccccc4)c(=O)c23)s1`, the 50% inhibitory concentration (IC50) in experiment [1] and in experiment [2] was under 100 nM in each case.
In the case of `Cc1cccc(-c2cccc3cc([C@H](C)Nc4nc(N)ncc4C#N)n(-c4ccccc4)c(=O)c23)c1`, the IC50 is under 100 nM in experiment [1], under 100 nM in experiment [2] and 100 to 1000 nM in experiment [3].
Take `C[C@H](Nc1nc(N)ncc1C#N)c1cc2cccc(-c3cccc(N(C)C)c3)c2c(=O)n1-c1ccccc1`: the results for the IC50 in experiment [1], in experiment [2] and in experiment [3] were under 100 nM, under 100 nM and 100 to 1000 nM, respectively.
Turning to `COc1cc(-c2cccc3cc([C@H](C)Nc4nc(N)ncc4C#N)n(-c4cccc(F)c4)c(=O)c23)ccn1`, the figures for the IC50 in experiment [1], in experiment [2] and in experiment [3] were under 100 nM, under 100 nM and 100 to 1000 nM, respectively.
As for `C[C@H](Nc1nc(N)ncc1C#N)c1cc2cccc(-c3cnc4ccccc4c3)c2c(=O)n1-c1cccc(F)c1`, the IC50 in experiment [1] was under 100 nM; in experiment [2], under 100 nM; in experiment [3], 100 to 1000 nM.
With `C[C@H](Nc1nc(N)ncc1C#N)c1nc2cccc(-c3ccnnc3)c2c(=O)n1-c1ccccc1`, the IC50 in experiment [1] and in experiment [2] was under 100 nM in each case.
For `CC(C)n1cc(-c2cccc3cc([C@H](C)Nc4nc(N)ncc4C#N)n(-c4ccccc4)c(=O)c23)ccc1=O`, the IC50 in experiment [1] and in experiment [2] was under 100 nM in each case.
As for `C[C@H](Nc1nc(N)ncc1C#N)c1cc2cccc(-c3ccc(=O)n(C4CCCC4)c3)c2c(=O)n1-c1ccccc1`, the IC50 was under 100 nM in experiment [1], under 100 nM in experiment [2] and 100 to 1000 nM in experiment [3].
On to `C[C@H](Nc1nc(N)ncc1C#N)c1cc2cccc(Cl)c2c(=O)n1CC(C)(C)C`, for which the IC50 in experiment [1] is 100 to 1000 nM; in experiment [2], 100 to 1000 nM; in experiment [3] it was over 10000 nM.
Take `C[C@H](Nc1nc(N)ncc1C#N)c1cc2cccc(-c3ccc(=O)n(CC4CC4)c3)c2c(=O)n1-c1ccccc1`: the IC50 in experiment [1] and in experiment [2] was under 100 nM throughout.
With `C[C@H](Nc1nc(N)ncc1-c1nccs1)c1cc2cccc(Cl)c2c(=O)n1-c1ccccc1`, the IC50 in experiment [1] and in experiment [2] was under 100 nM throughout.
For the compound `C[C@H](Nc1nc(N)ncc1C#N)c1cc2cccc(-c3cncc(O)c3)c2c(=O)n1-c1ccccc1`, the IC50 in experiment [1], in experiment [2] and in experiment [3] was under 100 nM throughout.
As for `COc1cc(-c2cccc3cc([C@H](C)Nc4nc(N)ncc4-c4cnc(OC)s4)n(-c4ccccc4)c(=O)c23)ccn1`, the concentration for half-maximal inhibition (IC50) was under 100 nM in experiment [1], under 100 nM in experiment [2] and 100 to 1000 nM in experiment [3].
As to `C[C@H](Nc1nc(N)ncc1C#N)c1cc2cccc(-c3ccc(NS(C)(=O)=O)cc3)c2c(=O)n1-c1ccccc1`, the half-inhibitory concentration (IC50) in experiment [1] and in experiment [2] was under 100 nM in each case.
In the case of `Cc1cc(-c2cccc3nc([C@H](C)Nc4nc(N)ncc4C#N)n(-c4ccccc4)c(=O)c23)ccn1`, the IC50 in experiment [1] and in experiment [2] was under 100 nM throughout.
For `CC(C)Oc1cncc(-c2cccc3cc([C@H](C)Nc4nc(N)ncc4C#N)n(-c4ccccc4)c(=O)c23)c1`, the IC50 in experiment [1], in experiment [2] and in experiment [3] was under 100 nM each time.
`COc1cccc(-c2cccc3cc([C@H](C)Nc4nc(N)ncc4C#N)n(-c4ccccc4)c(=O)c23)c1`: the IC50 in experiment [1], in experiment [2] and in experiment [3] was under 100 nM each time.
On to `C[C@H](Nc1nc(N)ncc1C#N)c1cc2cccc(-c3ccc4c(c3)OCO4)c2c(=O)n1-c1ccccc1`, for which the IC50 in experiment [1] and in experiment [2] was under 100 nM each time.
Turning to `C[C@H](Nc1nc(N)ncc1C#N)c1cc2cccc(-c3cccc(NS(C)(=O)=O)c3)c2c(=O)n1-c1ccccc1`, the IC50 in experiment [1] and in experiment [2] was under 100 nM in each case.
Take `Cc1cc(-c2cccc3cc([C@H](C)Nc4nc(N)ncc4C#N)n(-c4cccc(F)c4)c(=O)c23)ccn1`: the half-inhibitory concentration (IC50) in experiment [1] and in experiment [2] was under 100 nM each time.
Take `C[C@H](Nc1nc(N)ncc1C#N)c1cc2cccc(CC#N)c2c(=O)n1-c1ccccc1`: the 50% inhibitory concentration (IC50) in experiment [1] is under 100 nM; in experiment [2], under 100 nM; in experiment [3] it was over 10000 nM.
Regarding `C[C@H](Nc1nc(N)ncc1C#N)c1cc2cccc(Cl)c2c(=O)n1-c1cccc(F)c1F`, the IC50 was under 100 nM in experiment [1], under 100 nM in experiment [2] and over 10000 nM in experiment [3].
As for `C[C@H](Nc1nc(N)ncc1C#N)c1cc2cccc(-c3cccc(Cl)c3)c2c(=O)n1-c1ccccc1`, the IC50 in experiment [1] was under 100 nM; in experiment [2], under 100 nM; in experiment [3] it was 100 to 1000 nM.
As to `COc1ncc(-c2cccc3cc([C@H](C)Nc4nc(N)ncc4C#N)n(C4CC4)c(=O)c23)cn1`, the IC50 is under 100 nM in experiment [1] and 100 to 1000 nM in experiment [2].
As to `C[C@H](Nc1nc(N)ncc1-c1ccccn1)c1cc2cccc(Cl)c2c(=O)n1-c1ccccc1`, the IC50 in experiment [1] is 100 to 1000 nM; in experiment [2] it was under 100 nM; in experiment [3] it was over 10000 nM.
Consider `Cc1cncc(-c2cccc3cc([C@H](C)Nc4nc(N)ncc4C#N)n(-c4ccccc4)c(=O)c23)c1`, for which the IC50 in experiment [1] and in experiment [2] was under 100 nM in each case.
In the case of `C[C@H](Nc1nc(N)ncc1C#N)c1cc2cccc(Cl)c2c(=O)n1C1CCCCC1`, the 50% inhibitory concentration (IC50) in experiment [1] and in experiment [2] was under 100 nM throughout.
Take `C[C@H](Nc1nc(N)ncc1C#N)c1cc2cccc(-c3cncc(C(F)(F)F)c3)c2c(=O)n1-c1ccccc1`: the IC50 in experiment [1] and in experiment [2] was under 100 nM throughout.
Turning to `C[C@H](Nc1nc(N)ncc1C#N)c1cc2cccc(-c3ccc(S(N)(=O)=O)cc3)c2c(=O)n1-c1ccccc1`, the 50% inhibitory concentration (IC50) in experiment [1] and in experiment [2] was under 100 nM in each case.
On to `C[C@H](Nc1nc(N)ncc1C#N)c1cc2cccc(-c3ccnc(N)c3)c2c(=O)n1-c1ccccc1`, for which the half-inhibitory concentration (IC50) in experiment [1] and in experiment [2] was under 100 nM throughout.
As for `C[C@H](Nc1nc(N)ncc1C#N)c1cc2cccc(-c3cncc(S(C)(=O)=O)c3)c2c(=O)n1-c1ccccc1`, the IC50 in experiment [1] and in experiment [2] was under 100 nM in each case.
Consider `C[C@H](Nc1nc(N)ncc1C#N)c1nc2cccc(-c3cnn(C)c3)c2c(=O)n1-c1ccccc1`, for which the IC50 in experiment [1] and in experiment [2] was under 100 nM throughout.
With `C[C@H](Nc1nc(N)ncc1C#N)c1cc2cccc(-c3c[nH]nn3)c2c(=O)n1-c1ccccc1`, the IC50 in experiment [1] and in experiment [2] was under 100 nM in each case.
Regarding `C[C@H](Nc1nc(N)ncc1C#N)c1cc2cccc(-c3cccc(S(N)(=O)=O)c3)c2c(=O)n1-c1ccccc1`, the IC50 in experiment [1] and in experiment [2] was under 100 nM each time.
As to `C[C@H](Nc1nc(N)ncc1C#N)c1cc2cccc(C#CCCC(=O)N3CCCC3)c2c(=O)n1-c1ccccc1`, the IC50 in experiment [1] and in experiment [2] was under 100 nM throughout.
In the case of `C[C@H](Nc1nc(N)ncc1C#N)c1cc2ccccc2c(=O)n1-c1ccccc1`, the IC50 in experiment [1] and in experiment [2] was under 100 nM throughout.
Consider `C[C@H](Nc1nc(N)ncc1C#N)c1cc2cccc(-c3ccc(=O)n(C)c3)c2c(=O)n1-c1ccccc1`, for which the IC50 in experiment [1] and in experiment [2] was under 100 nM throughout.
Regarding `C[C@H](Nc1nc(N)ncc1C#N)c1cc2cccc(-c3cncc(F)c3)c2c(=O)n1-c1ccccc1`, the IC50 in experiment [1] and in experiment [2] was under 100 nM each time.
Turning to `C[C@H](Nc1nc(N)ncc1C#N)c1cc2cccc(-c3cnoc3)c2c(=O)n1-c1ccccc1`, the IC50 in experiment [1] and in experiment [2] was under 100 nM in each case.
Regarding `COc1ccc(-c2cccc3cc([C@H](C)Nc4nc(N)ncc4C#N)n(-c4ccccc4)c(=O)c23)cc1`, the IC50 in experiment [1] and in experiment [2] was under 100 nM each time.
For `C[C@H](Nc1nc(N)ncc1C#N)c1cc2cccc(-c3ccc(C#N)cc3)c2c(=O)n1-c1ccccc1`, the IC50 in experiment [1] and in experiment [2] was under 100 nM in each case.
On to `C[C@H](Nc1nc(N)ncc1C#N)c1cc2cccc(Cl)c2c(=O)n1-c1ccc(C#N)cc1`, for which the IC50 in experiment [2] is 100 to 1000 nM; in experiment [3] it was over 10000 nM.
As to `C[C@H](Nc1nc(N)ncc1C#N)c1cc2cccc(-c3cccc(C#N)c3)c2c(=O)n1-c1ccccc1`, the IC50 in experiment [1] and in experiment [2] was under 100 nM in each case.
As for `COc1cc(-c2cccc3nc([C@H](C)Nc4nc(N)ncc4C#N)n(-c4ccccc4)c(=O)c23)ccn1`, the IC50 in experiment [1] and in experiment [2] was under 100 nM throughout.
As to `C[C@H](Nc1nc(N)ncc1C#N)c1cc2cccc(-c3ccnc(NS(C)(=O)=O)c3)c2c(=O)n1-c1ccccc1`, the IC50 in experiment [1] and in experiment [2] was under 100 nM throughout.
As for `C[C@H](Nc1nc(N)ncc1C#N)c1cc2cccc(-c3ccc(Cl)cc3)c2c(=O)n1-c1ccccc1`, the IC50 in experiment [1] and in experiment [2] was under 100 nM each time.
